Here are results for twelve compounds from ChEMBL document CHEMBL5335778, “Bench-to-bedside: Innovation of small molecule anti-SARS-CoV-2 drugs in China” (Eur J Med Chem, 2023).

For one series, the system named is Ebolavirus. Briefly: Antiviral activity against EBOV infected in human Huh-7 cells assessed as reduction in viral replication. The format is functional, organism-based. The settings on record: Orthoebolavirus.
Series [1] relates to Respiratory syncytial virus. In words: Antiviral activity against Respiratory syncytial virus. The format is functional, organism-based. The settings on record: human respiratory syncytial virus.
Series [2] is described as follows: Selectivity index, ratio of CC50 for cytotoxicity against human HEp-2 cells to IC50 for antiviral activity against RSV A2 infected in human HEp-2 cells.
The test system of series [3] is SARS-CoV. Briefly: Antiviral activity against SARS-CoV infected in Vero E6 cells assessed as reduction in viral replication measured after 48 hrs by qRT-PCR assay. The format is functional, organism-based. The settings on record: Severe acute respiratory syndrome-related coronavirus, Vero C1008, 48 h.
In series [4] the test system is Middle East respiratory syndrome-related coronavirus. Briefly: Antiviral activity against MERS-CoV infected in HAE cells. The format is functional, organism-based.
A short description of the next series: in vitro. The settings on record: monkey, Vero E6 cells.
For series [5], the system named is SARS-CoV-2. Briefly: microbe, parasite or virus in culture. The settings on record: Severe acute respiratory syndrome coronavirus 2, Vero C1008.
Series [6] deals with T1, Human immunodeficiency virus type 1 reverse transcriptase (Human immunodeficiency virus 1, UniProt Q72547). Briefly: Inhibition of HIV-1 reverse transcriptase associated RNA-dependent DNA polymerase.
The subject of series [7] is SARS-CoV-2. In words: Antiviral activity against SARS-CoV-2 Omicron assessed as reduction of viral growth. The format is functional, organism-based. The settings on record: Severe acute respiratory syndrome coronavirus 2, Omicron.
In series [8] the test system is SARS-CoV-2. Briefly: Antiviral activity against SARS-CoV-2 B.1.1.7 Alpha infected in human Calu-3 cells assessed as inhibition of viral infection preincubated for 1 hr followed by viral infection measured after 48 hrs by Hoechst 33342 staining based analysis. The format is functional, organism-based. To be noted: Severe acute respiratory syndrome coronavirus 2, B.1.1.7, Calu-3.

In series [9] the test system is SARS-CoV-2. Briefly: Antiviral activity against SARS-CoV-2 […] infected in human 293TA cells assessed as reduction of viral growth measured after 48 hrs by luciferase assay. To be noted: Severe acute respiratory syndrome coronavirus 2, 293TA. The format is functional, organism-based.
The test system of series [10] is SARS-CoV-2. Briefly: Antiviral activity against SARS-CoV-2 […] B.1.617.2 delta infected in human 293TA cells assessed as reduction of viral growth measured after 48 hrs by luciferase assay. The settings on record: Severe acute respiratory syndrome coronavirus 2, 293TA. The format is functional, organism-based.
Series [11] deals with Hepatitis C virus NS5B RNA-dependent RNA polymerase (Hepatitis C virus, UniProt Q8JXU8). In words: Inhibition of Hepatitis C virus NS5B polymerase. Details: species or system Hepacivirus hominis.
Hepatitis C virus NS5B RNA-dependent RNA polymerase, sequence (Q8JXU8 whole entry): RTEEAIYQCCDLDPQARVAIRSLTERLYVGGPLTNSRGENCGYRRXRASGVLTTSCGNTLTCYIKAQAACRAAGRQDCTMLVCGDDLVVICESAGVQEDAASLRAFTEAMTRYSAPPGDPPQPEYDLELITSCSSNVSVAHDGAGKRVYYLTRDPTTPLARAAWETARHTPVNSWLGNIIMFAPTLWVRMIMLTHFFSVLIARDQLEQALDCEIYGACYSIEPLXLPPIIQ
In series [12] the target is T1, Human immunodeficiency virus type 1 reverse transcriptase. In words: Inhibition of wild type HIV-1 reverse transcriptase.
Series [13] deals with Human immunodeficiency virus 2. In words: Antiviral activity against HIV-2 D194 infected in PBMC assessed as inhibition of viral growth. The format is functional, organism-based. To be noted: Human immunodeficiency virus 2, D194, PBMC.
For series [14], the target named is Human immunodeficiency virus type 1 protease (Human immunodeficiency virus 1, UniProt Q72874). In words: Inhibition of HIV-1 protease.
In series [15] the test system is SARS-CoV-2. Briefly: Antiviral activity against SARS-CoV-2 infected in African green monkey Vero E6 cells expressing TMPRSS2 assessed as reduction in virus-induced cytopathic effect measured after 48 hrs by cellular ATP assay. The format is functional, organism-based. To be noted: Severe acute respiratory syndrome coronavirus 2, Vero C1008, 48 h. (In general: Cytopathic effects are the visible damage that an infection or toxin causes in cultured cells.)

Series [16] concerns SARS-CoV. Briefly: Antiviral activity against SARS-CoV-1 infected in African green monkey Vero E6 cells expressing TMPRSS2. The format is functional, organism-based. To be noted: Severe acute respiratory syndrome-related coronavirus, Vero C1008.
A short description of series [17]: Oral bioavailability in rat. The format is ADME, organism-based. To be noted: in vivo.
Series [18] has as its system Human immunodeficiency virus 1. Briefly: Antiviral activity against HIV-1 3B infected in human MT4 cells assessed as reduction in virus-induced cytopathic effect incubated for 5 days by MTT assay. The format is functional, organism-based. The settings on record: Human immunodeficiency virus 1, 3B, MT4, 120 h.
Series [19] in a line: Cytotoxicity against human MT4 cells assessed as reduction in cell viability treated for 5 days by MTT assay. The format is toxicity, cell-based. To be noted: time 5 day.
The next series concerns Human coronavirus OC43. Briefly: Antiviral activity against HCoV-OC43. The format is functional, organism-based. To be noted: Betacoronavirus 1.
Series [20] relates to SARS-CoV-2. Briefly: Antiviral activity against SARS-CoV-2 assessed as inhibition of viral replication. The format is functional, organism-based. To be noted: Severe acute respiratory syndrome coronavirus 2.
A short description of series [21]: Oral bioavailability in beagle dog at 2 mg/kg. The format is ADME, organism-based, Canis lupus familiaris. To be noted: in vivo.

For `CCC(CC)COC(=O)[C@H](C)N[P@](=O)(OC[C@H]1O[C@@](C#N)(c2ccc3c(N)ncnn23)[C@H](O)[C@@H]1O)Oc1ccccc1`, the EC50 with Ebolavirus stood at 12 nM; in series [1] it was 21 nM; in the series with SARS-CoV [3], 69 nM; in [4], 25 nM; with SARS-CoV-2 [5] it was 770 nM. Moreover, the selectivity ratio in series [2] is 395; in the series “in vitro” it was more than 100.

In turn, `C[C@@]1(O)[C@H](O)[C@@H](CO)O[C@H]1n1ccc(N)nc1=O` yielded an IC50 in series [6] of 1050 nM.

Take `O=C[C@H](C[C@@H]1CCNC1=O)NC(=O)[C@H](CC1CCCCC1)NC(=O)c1cc2ccccc2[nH]1`: the EC50 is 33 nM in the series with SARS-CoV-2 [7], 390 nM in the series with SARS-CoV-2 [8], 280 nM with SARS-CoV-2 [9] and 270 nM in the series on SARS-CoV-2 [10].

In the case of `CC(C)(C)[C@H](NC(=O)C(F)(F)F)C(=O)N1C[C@H]2[C@@H]([C@H]1C(=O)N[C@H](C#N)C[C@@H]1CCNC1=O)C2(C)C`, the EC50 worked out at 33 nM in the series on SARS-CoV-2 [7], 820 nM with SARS-CoV-2 [8], 490 nM with SARS-CoV-2 [9] and 780 nM with SARS-CoV-2 [10].

With `O=C[C@H](C[C@@H]1CCNC1=O)NC(=O)[C@H](Cc1ccccc1)NC(=O)c1cc2ccccc2[nH]1`, the EC50 with SARS-CoV-2 [7] turned out to be 33 nM.

For the compound `[N-]=[N+]=N[C@]1(CO)O[C@@H](n2ccc(N)nc2=O)[C@@H](O)[C@@H]1O`, the IC50 in series [11] worked out at 1280 nM; in series [14] it was 171 nM. The EC50 in series [12] was 0.03 nM; in [13], 0.018 nM.

With `[2H][C@](C(=O)N[C@@H](C)c1ccc(F)cc1)(c1cccnc1)N(C(=O)C(C)=O)c1ccc2c(c1)oc1ccccc12`, the EC50 with SARS-CoV-2 [7] was 33 nM.

`O=C(NCc1cccs1)[C@@H]1CN(C(=O)c2cccnc2)CCN1c1ccc(Cl)c(Cl)c1`: the EC50 in the series on SARS-CoV-2 [7] worked out at 33 nM.

Take `Cn1cnc(Cn2c(=O)[nH]/c(=N\c3cc4cn(C)nc4cc3Cl)n(Cc3cc(F)c(F)cc3F)c2=O)n1`: the EC50 with SARS-CoV-2 [15] turned out to be 350 nM; in the series on SARS-CoV [16] it was 1900 nM.

With `O=C[C@H](C[C@@H]1CCNC1=O)NC(=O)[C@@H]1[C@H]2CCC[C@H]2CN1C(=O)CCc1cc(F)cc(F)c1`, the EC50 in the series with SARS-CoV-2 [7] came to 33 nM.

In turn, `[2H]c1cc([C@]2(C#N)O[C@H](COC(=O)C(C)C)[C@@H](OC(=O)C(C)C)[C@H]2OC(=O)C(C)C)n2ncnc(N)c12` came in with a bioavailability in series [17] of 49.9%. For the same compound, the EC50 in series [18] came out at 350 nM. For the same compound, the CC50 at 120 h in series [19] came out at 280 µM.

On to `[N-]=[N+]=N[C@]1(COP(=O)(O)OP(=O)(O)OP(=O)(O)O)O[C@@H](n2ccc(N)nc2=O)[C@@H](F)[C@@H]1O`, for which the EC50 in series [12] is 0.03 nM; in series [13] it was 0.018 nM; in the series with Human coronavirus OC43, 4.3 µM; in the series with SARS-CoV-2 [20], 1200 nM. Moreover, in series [21], the bioavailability is 82.7%.

In general, EC50 refers to the concentration giving half of the maximal effect. As a reminder, the IC50 is the midpoint of a concentration-inhibition curve. In general, bioavailability refers to dose-corrected exposure relative to a reference, in per cent. The term CC50 denotes the concentration that lowers cell viability or growth by half.
